Experimental data: the supplement of paper PMC13207355

Columns and labels:
Conditions in all cases: exposure time: 72 h
[1] = system: E21 (patient-derived glioblastoma stem cells of mesenchymal subtype); assay: surviving fraction (nuclei count normalised to DMSO); higher = more cells surviving (less toxic)
[2] = system: FT3469 (normal neural stem cell line); assay: as above
[3] = system: E31 (patient-derived glioblastoma stem cells of proneural subtype); assay: as above
[4] = system: E34 (patient-derived glioblastoma stem cells of proneural subtype); assay: as above
[5] = system: E57 (patient-derived glioblastoma stem cells of mesenchymal subtype); assay: as above
[6] = system: E28 (patient-derived glioblastoma stem cells of classical subtype); assay: as above
[7] = system: E13 (patient-derived glioblastoma stem cells of classical subtype); assay: as above
[8] = system: E21; assay: phenotypic distance (Euclidean, principal components) from DMSO controls (arbitrary units); higher = stronger morphological change
[9] = system: FT3469; assay: as above
[10] = system: E31; assay: as above
[11] = system: E34; assay: as above
[12] = system: E57; assay: as above
[13] = system: E28; assay: as above
[14] = system: E13; assay: as above
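Wherever phenotypic distance (Euclidean, principal components) from DMSO controls is given: cell Painting imaging in 384-well plates, CellProfiler features reduced to at least 20 principal components, Euclidean distance versus same-plate DMSO vehicle wells (0.1% v/v), median over six images per well.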
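Wherever surviving fraction (nuclei count normalised to DMSO) is given: nuclei counted by high-content imaging of Hoechst-stained cells in laminin-coated 384-well plates, relative to 0.1% DMSO vehicle wells, with staurosporine as cell-death control.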

Cc1[nH]nc(C(F)(F)F)c1Cc1sc2c(c1C(=O)N1C[C@](C)(O)CO1)c(=O)n(C)c(=O)n2C(C)C [AZD3965]
Conditions	phenotypic distance	surviving fraction
[1], 4.1 nM	–	0.918
[1], 4.11523 nM	–	0.909
[1], 12.3 nM	–	0.974
[1], 12.34567901 nM	–	0.942
[1], 37 nM	–	1.01
[1], 37.037 nM	–	0.985
[1], 111.1 nM	–	0.876
[1], 111.1111111 nM	–	0.994
[1], 333.3 nM	–	0.97
[1], 333.333 nM	–	0.874
[1], 1000 nM	–	0.975
[1], 3000 nM	–	1.03
[2], 4.1 nM	–	0.911
[2], 4.11523 nM	–	0.788
[2], 12.3 nM	–	0.929
[2], 12.34567901 nM	–	0.932
[2], 37 nM	–	0.838
[2], 37.037 nM	–	0.903
[2], 111.1 nM	–	0.873
[2], 111.1111111 nM	–	1.07
[2], 333.3 nM	–	1.05
[2], 333.333 nM	–	0.841
[2], 1000 nM	–	0.948
[2], 3000 nM	–	0.899
[3], 4.1 nM	–	1.02
[3], 4.11523 nM	–	0.885
[3], 12.3 nM	–	1.01
[3], 12.34567901 nM	–	1.03
[3], 37 nM	–	1.11
[3], 37.037 nM	–	0.935
[3], 111.1 nM	–	1.02
[3], 111.1111111 nM	–	1.26
[3], 333.3 nM	–	1.08
[3], 333.333 nM	–	0.948
[3], 1000 nM	–	1.06
[3], 3000 nM	–	0.9527
[4], 4.1 nM	–	0.782
[4], 4.11523 nM	–	0.704
[4], 12.3 nM	–	0.677
[4], 12.34567901 nM	–	0.748
[4], 37 nM	–	0.775
[4], 37.037 nM	–	0.724
[4], 111.1 nM	–	0.71
[4], 111.1111111 nM	–	0.849
[4], 333.3 nM	–	0.713
[4], 333.333 nM	–	0.686
[4], 1000 nM	–	0.7
[4], 3000 nM	–	0.718
[5], 4.1 nM	–	0.905
[5], 4.11523 nM	–	0.97
[5], 12.3 nM	–	0.959
[5], 12.34567901 nM	–	0.899
[5], 37 nM	–	0.94
[5], 37.037 nM	–	0.871
[5], 111.1 nM	–	0.932
[5], 111.1111111 nM	–	0.96
[5], 333.3 nM	–	0.917
[5], 333.333 nM	–	0.898
[5], 1000 nM	–	0.922
[5], 3000 nM	–	0.917
[6], 4.1 nM	–	0.719
[6], 4.11523 nM	–	0.606
[6], 12.3 nM	–	0.623
[6], 12.34567901 nM	–	0.725
[6], 37 nM	–	0.66
[6], 37.037 nM	–	0.664
[6], 111.1 nM	–	0.585
[6], 111.1111111 nM	–	0.599
[6], 333.3 nM	–	0.695
[6], 333.333 nM	–	0.602
[6], 1000 nM	–	0.645
[6], 3000 nM	–	0.609
[7], 4.1 nM	–	0.892
[7], 4.11523 nM	–	0.874
[7], 12.3 nM	–	0.878
[7], 12.34567901 nM	–	0.853
[7], 37 nM	–	0.902
[7], 37.037 nM	–	0.888
[7], 111.1 nM	–	0.875
[7], 111.1111111 nM	–	0.852
[7], 333.3 nM	–	0.798
[7], 333.333 nM	–	0.795
[7], 1000 nM	–	0.8872
[7], 3000 nM	–	0.893
[8], 4.1 nM	0.524	–
[8], 4.11523 nM	0.56	–
[8], 12.3 nM	0.38	–
[8], 12.34567901 nM	0.473	–
[8], 37 nM	0.579	–
[8], 37.037 nM	0.608	–
[8], 111.1 nM	3	–
[8], 111.1111111 nM	0.601	–
[8], 333.3 nM	0.814	–
[8], 333.333 nM	0.596	–
[8], 1000 nM	0.438	–
[8], 3000 nM	0.509	–
[9], 4.1 nM	2.64	–
[9], 4.11523 nM	1.35	–
[9], 12.3 nM	0.859	–
[9], 12.34567901 nM	1.19	–
[9], 37 nM	0.806	–
[9], 37.037 nM	1.13	–
[9], 111.1 nM	0.75	–
[9], 111.1111111 nM	1.11	–
[9], 333.3 nM	1.33	–
[9], 333.333 nM	1.16	–
[9], 1000 nM	0.712	–
[9], 3000 nM	0.976	–
[10], 4.1 nM	1.24	–
[10], 4.11523 nM	1.57	–
[10], 12.3 nM	1.17	–
[10], 12.34567901 nM	1.51	–
[10], 37 nM	1.23	–
[10], 37.037 nM	1.3	–
[10], 111.1 nM	1.12	–
[10], 111.1111111 nM	1.4	–
[10], 333.3 nM	1.58	–
[10], 333.333 nM	1.36	–
[10], 1000 nM	1.41	–
[10], 3000 nM	1.36	–
[11], 4.1 nM	1.15	–
[11], 4.11523 nM	1.69	–
[11], 12.3 nM	1.33	–
[11], 12.34567901 nM	1.5	–
[11], 37 nM	1.42	–
[11], 37.037 nM	1.59	–
[11], 111.1 nM	1.57	–
[11], 111.1111111 nM	1.79	–
[11], 333.3 nM	1.47	–
[11], 333.333 nM	1.47	–
[11], 1000 nM	1.21	–
[11], 3000 nM	1.35	–
[12], 4.1 nM	1.39	–
[12], 4.11523 nM	1.81	–
[12], 12.3 nM	1.46	–
[12], 12.34567901 nM	1.78	–
[12], 37 nM	1.94	–
[12], 37.037 nM	2.19	–
[12], 111.1 nM	1.74	–
[12], 111.1111111 nM	1.87	–
[12], 333.3 nM	1.65	–
[12], 333.333 nM	1.79	–
[12], 1000 nM	1.74	–
[12], 3000 nM	1.93	–
[13], 4.1 nM	1.93	–
[13], 4.11523 nM	2.44	–
[13], 12.3 nM	2.03	–
[13], 12.34567901 nM	2.3	–
[13], 37 nM	2.12	–
[13], 37.037 nM	2.05	–
[13], 111.1 nM	2.52	–
[13], 111.1111111 nM	2.75	–
[13], 333.3 nM	2.16	–
[13], 333.333 nM	1.86	–
[13], 1000 nM	3.17	–
[13], 3000 nM	2.52	–
[14], 4.1 nM	2.38	–
[14], 4.11523 nM	3.36	–
[14], 12.3 nM	1.38	–
[14], 12.34567901 nM	1.25	–
[14], 37 nM	1.12	–
[14], 37.037 nM	1.28	–
[14], 111.1 nM	1.14	–
[14], 111.1111111 nM	1.42	–
[14], 333.3 nM	1.61	–
[14], 333.333 nM	1.44	–
[14], 1000 nM	1.42	–
[14], 3000 nM	1.49	–

CC[C@@H]1C(=O)N(C)c2cnc(Nc3ccc(C(=O)N[C@H]4CC[C@H](N5CCN(CC6CC6)CC5)CC4)cc3OC)nc2N1C(C)C [Volasertib]
Conditions	phenotypic distance	surviving fraction
[1], 4.1 nM	–	0.459
[1], 12.3 nM	–	0.447
[1], 37 nM	–	0.372
[1], 111.1 nM	–	0.289
[1], 333.3 nM	–	0.207
[1], 1000 nM	–	0.205
[1], 3000 nM	–	0.274
[2], 4.1 nM	–	0.874
[2], 12.3 nM	–	0.885
[2], 37 nM	–	0.808
[2], 111.1 nM	–	0.646
[2], 333.3 nM	–	0.588
[2], 1000 nM	–	0.506
[2], 3000 nM	–	0.544
[3], 4.1 nM	–	0.275
[3], 12.3 nM	–	0.237
[3], 37 nM	–	0.251
[3], 111.1 nM	–	0.163
[3], 333.3 nM	–	0.161
[3], 1000 nM	–	0.148
[3], 3000 nM	–	0.178
[4], 4.1 nM	–	0.769
[4], 12.3 nM	–	0.695
[4], 37 nM	–	0.644
[4], 111.1 nM	–	0.624
[4], 333.3 nM	–	0.503
[4], 1000 nM	–	0.414
[4], 3000 nM	–	0.501
[5], 4.1 nM	–	0.623
[5], 12.3 nM	–	0.679
[5], 37 nM	–	0.463
[5], 111.1 nM	–	0.205
[5], 333.3 nM	–	0.123
[5], 1000 nM	–	0.12
[5], 3000 nM	–	0.141
[6], 4.1 nM	–	0.613
[6], 12.3 nM	–	0.688
[6], 37 nM	–	0.648
[6], 111.1 nM	–	0.439
[6], 333.3 nM	–	0.459
[6], 1000 nM	–	0.386
[6], 3000 nM	–	0.39
[7], 4.1 nM	–	0.449
[7], 12.3 nM	–	0.418
[7], 37 nM	–	0.387
[7], 111.1 nM	–	0.387
[7], 333.3 nM	–	0.348
[7], 1000 nM	–	0.301
[7], 3000 nM	–	0.322
[8], 4.1 nM	2.95	–
[8], 12.3 nM	3.49	–
[8], 37 nM	3.86	–
[8], 111.1 nM	6.48	–
[8], 333.3 nM	5.25	–
[8], 1000 nM	6.04	–
[8], 3000 nM	7.2	–
[9], 4.1 nM	2.22	–
[9], 12.3 nM	1.25	–
[9], 37 nM	1.74	–
[9], 111.1 nM	2.57	–
[9], 333.3 nM	2.83	–
[9], 1000 nM	3.25	–
[9], 3000 nM	2.99	–
[10], 4.1 nM	2.88	–
[10], 12.3 nM	2.73	–
[10], 37 nM	2.37	–
[10], 111.1 nM	3.54	–
[10], 333.3 nM	3.91	–
[10], 1000 nM	4.92	–
[10], 3000 nM	3.6	–
[11], 4.1 nM	1.64	–
[11], 12.3 nM	1.44	–
[11], 37 nM	2.23	–
[11], 111.1 nM	2.45	–
[11], 333.3 nM	3.05	–
[11], 1000 nM	4.15	–
[11], 3000 nM	3.53	–
[12], 4.1 nM	2.53	–
[12], 12.3 nM	2.05	–
[12], 37 nM	3.22	–
[12], 111.1 nM	7.13	–
[12], 333.3 nM	6.28	–
[12], 1000 nM	6.68	–
[12], 3000 nM	8.42	–
[13], 4.1 nM	1.97	–
[13], 12.3 nM	1.64	–
[13], 37 nM	1.4	–
[13], 111.1 nM	2.98	–
[13], 333.3 nM	2.89	–
[13], 1000 nM	3.11	–
[13], 3000 nM	4.22	–
[14], 4.1 nM	4.53	–
[14], 12.3 nM	4.86	–
[14], 37 nM	5.16	–
[14], 111.1 nM	4.97	–
[14], 333.3 nM	4.79	–
[14], 1000 nM	5.82	–
[14], 3000 nM	5.69	–
